Data published in patent US10278971B2, “Fluorocyclopentenylcytosine methods of use” (Rexahn Pharmaceuticals, Inc., priority 2015, dated 2019).
pIC50: −log10 of the molar value.

Assays:
H460 [1] = experiment: Mice xenograft model, tumor growth inhibition; assay type: in vivo; conditions: oral 500 mg/kg, TIWK
Source text: (§1) A novel, orally bioavailable nucleoside analogue, RX-3117, is a prodrug activated intracellularly by Uridine Cytidine Kinase 2 (UCK2) that is thought to be expressed predominantly in tumor tissue. RX-3117 is currently being evaluated in a Phase Ib/IIa multi-center, open-label clinical study in patients with advanced pancreatic and bladder cancer. In this study, the relation between UCK2 tissue protein expression and the efficacy of RX-3117 in mice xenograft models and also UCK2 protein expression in a panel of human cancer tissues relative to normal tissue were studied.
(§2) The immunoblotting protein level of UCK2 normalized to beta-actin and corresponding tumor growth inhibition (oral RX-3117 dose of 500 mg/kg, TIWK) were 57 and 67% in MiaPaCa2, 30 and −5% in BxPC3, 199 and 92% in Colo-205, 21 and 90% in Caki-1, 2 and 39% in A549, and 146 and 79% in H460, respectively. […] Average H-Scores of UCK2 in cancer tissues vs. normal tissues were 104 vs. 9 in lung, 97 vs. 20 in bladder, 67 vs. 41 in pancreas and 39 vs. 21 in colon, respectively.

Colo-205 = experiment: Mice xenograft model, tumor growth inhibition; assay type: in vivo; conditions: Colo-205 xenograft, oral 500 mg/kg, TIWK
Source text: as §1, §2

MiaPaCa2 = experiment: Mice xenograft model, tumor growth inhibition; assay type: in vivo; conditions: oral 500 mg/kg, TIWK
Source text: as §1, §2

A549 [2] = experiment: Mice xenograft model, tumor growth inhibition; assay type: in vivo; conditions: oral 500 mg/kg, TIWK
Source text: as §1, §2

Caki-1 = experiment: Mice xenograft model, tumor growth inhibition; assay type: in vivo; conditions: Caki-1 xenograft, oral 500 mg/kg, TIWK
Source text: as §1, §2

BxPC3 = experiment: Mice xenograft model, tumor growth inhibition; assay type: in vivo; conditions: oral 500 mg/kg, TIWK
Source text: as §1, §2

SW1573/G = conditions: as reported in Peters et al. 2013; cited from earlier work
MC38 murine colon cancer = experiment: Syngeneic MC38 murine colon cancer model, tumor growth; assay type: in vivo
Description: Following the protocol described below, the effect of RX-3117 on tumor growth in a syngeneic model using female C57BL/6 mice with MC38 murine colon cancer was examined. Tumor growth was measured in a treatment group compared to a control (vehicle treated) group (see Table 1 below for dosing scheme and treatment regimen).
Briefly, the method is described as follows. The cells were harvested during exponential growth and re-suspended with phosphate buffered saline. Each test animal received a subcutaneous (s.c.) injection of 1×10^6 tumor cells into the right flank and tumor growth was monitored as the average tumor size approaches the target range of 60-100 mm^3. Dosing, based on Table 1 started as each animal reached this target range.
Tumors were measured in two dimensions using calipers, and volume calculated using the formula:
[…] The MTV (n), the median tumor volume for the number of animals, n, on Day 45, was determined for each group. Percent tumor growth inhibition (% TGI) is defined as the difference between the MTV of the designated control group (vehicle administration) and the MTV of the drug-treated group, expressed as a percentage of the MTV of the control group:
The data set for TGI analysis includes all animals in a group, except those that died due to treatment-related (TR) or non-treatment-related (NTR) causes. An agent that produces at least 60% TGI in this assay is considered to be potentially therapeutically active.
Treatment efficacy was determined from the number of regression responses. Treatment may cause partial regression (PR) or complete regression (CR) of the tumor in an animal. In a PR response, the tumor volume is 50% or less of its D1 volume for three consecutive measurements during the course of the study, and equal to or greater than 13.5 mm^3 for one or more of these three measurements. In a CR response, the tumor volume is less than 13.5 mm^3 for three consecutive measurements during the course of the study. Any animal with a CR response on the last day of the study was additionally classified as a tumor-free-survivor.
For toxicity assessments, animals were weighed daily for the first five days of the study and twice weekly thereafter. The mice were observed frequently for overt signs of any adverse, treatment-related side effects, and clinical signs of toxicity are recorded when observed.
Acceptable toxicity is defined as a group mean body-weight loss of less than 20% during the study and not more than one treatment-related (TR) death among ten treated animals. Any dosing regimen resulting in greater toxicity is considered above the maximum tolerated dose (MTD). […]

H460 [3] = experiment: Clonogenic assay, radiosensitizing effect; assay type: cell-based, human; conditions: H460, 1 μM pre-incubation 24 h, irradiation
Description: (§3) Exponential growing A2780, SW1573, A549, H460 and SW1573/G-cells were exposed to 1 μM RX-3117 or untreated (control) for 24 h and irradiated with single doses γ-radiation (0-6 Gy) using a ^60Co source (Gammacell 200, Atomic Energy of Canada, Ltd). Subsequently, 500 cells/T25 flasks were plated and allowed to form colonies. After ten days colonies were fixed with 100% ethanol and stained with 10% Giemsa stain solution (Merck Chemicals BV, Amsterdam, the Netherlands) for colonies counting. Plating efficiency (PE) was calculated by dividing the number of colonies formed through the number of cells plated and normalized for cytotoxicity induced by control. To illustrate the effect of RX-3117 on radiation, dose modifying factor (DMF) was calculated as described earlier (Bijnsdorp I V, van den Berg J, Kuipers G K, Wedekind L E, Slotman B J, van Rijn J, Lafleur M V M and Sminia P: Radiosensitizing potential of the selective cyclooygenase-2 (COX-2) inhibitor meloxicam on human glioma cells. J Neurooncol 85: 25-31, 2007).

SW1573/G- = experiment: Clonogenic assay, radiosensitizing effect; assay type: cell-based, human; conditions: 1 μM pre-incubation 24 h, irradiation
Description: as §3

A549 [4] = experiment: Clonogenic assay, radiosensitizing effect; assay type: cell-based, human; conditions: A549, 1 μM pre-incubation 24 h, irradiation 0-6 Gy
Description: as §3

A2780 = experiment: Clonogenic assay, radiosensitizing effect; assay type: cell-based, human
Description: as §3

SW1573 = experiment: Clonogenic assay, radiosensitizing effect; assay type: cell-based, human
Description: as §3

[5] = Day 45, N=10 per group, same regimens

SMILES: Nc1ccn([C@@H]2C(F)=C(CO)[C@@H](O)[C@H]2O)c(=O)n1 [RX-3117, 4-amino-1-((1S,4R,5S)-2-fluoro-4,5-dihydroxy-3-hydroxymethyl-cyclopent-2-enyl)-1H-pyrimidin-2-one]
- tumor growth inhibition (H460 [1]): 79%
- tumor growth inhibition (Colo-205): 92%
- tumor growth inhibition (MiaPaCa2): 67%
- tumor growth inhibition (A549 [2]): 39%
- tumor growth inhibition (Caki-1): 90%
- tumor growth inhibition (BxPC3): −5%
- pIC50 (SW1573/G): 5.14
- CR: No. of Complete Regressions (MC38 murine colon cancer; [5]): 0
- PR: No. of Partial Regressions (MC38 murine colon cancer; [5]): 0
- TFS: No. of Tumor Free Survivors (MC38 murine colon cancer; [5]): 0
- TGI Day 28 (tumor growth inhibition) (MC38 murine colon cancer; female C57BL/6 mice, MC38 s.c., RX-3117 60 mg/kg po (5/2) x 3, anti-PD-1 RMP1-14 100 μg/animal ip biwk x 2, 60 mg/kg): 80%
- radiosensitizing effect (H460 [3]): poor radiosensitizing effect
- dose modifying factor (DMF) (SW1573/G-): 1.4
- dose modifying factor (DMF) (A549 [4]): 1.8
- dose modifying factor (DMF) (A2780; A2780, 1 μM pre-incubation 24 h, irradiation 0-6 Gy): 1.8
- plating efficiency compared to control (A2780; A2780, pre-incubation 1 μM 24 h, 4 Gy): five times lower
- colonies outgrowth, fractionated radio therapy (SW1573; SW1573, 1 μM prior to 5 times 2 Gy): lowest colonies outgrowth
- dose modifying factor (DMF) (SW1573; SW1573, 5 μM (FIG. 16 legend) pre-incubation 24 h, irradiation): 1.5
